Data taken from the supplement of paper PMC10307832.

How the values were obtained:
Assay in all cases: relative viability (nuclei count vs DMSO), 5 days (fraction); higher = more cells survive
[1] = compound: O=C(O)c1ccc2c(c1)nc(Nc1cccc(Cl)c1)c1ccncc12 [Silmitasertib] + Cc1nc(Nc2ncc(C(=O)Nc3c(C)cccc3Cl)s2)cc(N2CCN(CCO)CC2)n1 [Dasatinib] (partner 0.075 µM)
Summary of the method: (§1)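 One day after seeding in 1536-well plates, lung cancer cell lines were dosed by pin tool. Dosing was either single-drug or a fixed anchor-drug dose plus five library-drug doses (not always all listed) in √10 steps. After 5 days, nuclei were stained in one fix-and-stain step and counted on 4× images, and relative viability is the nuclei count of treated wells over that of vehicle wells, given as the median of duplicate plates.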

[2] = compound: O=C(O)c1ccc2c(c1)nc(Nc1cccc(Cl)c1)c1ccncc12 [Silmitasertib] + Cc1nc(NC(=O)N2CCC[C@H]2C(N)=O)sc1-c1ccnc(C(C)(C)C(F)(F)F)c1 [Alpelisib] (partner 2 µM)
Summary of the method: as §1

[3] = compound: O=C(O)c1ccc2c(c1)nc(Nc1cccc(Cl)c1)c1ccncc12 [Silmitasertib] + C[C@@H](Oc1cc(-c2cnn(C3CCNCC3)c2)cnc1N)c1c(Cl)ccc(F)c1Cl [Crizotinib] (partner 1 µM)
Summary of the method: as §1

[4] = compound: O=C(O)c1ccc2c(c1)nc(Nc1cccc(Cl)c1)c1ccncc12 [Silmitasertib] + O=C(c1cc(Cc2n[nH]c(=O)c3ccccc23)ccc1F)N1CCN(C(=O)C2CC2)CC1 [Olaparib] (partner 8 µM)
Summary of the method: as §1

[5] = compound: O=C(O)c1ccc2c(c1)nc(Nc1cccc(Cl)c1)c1ccncc12 [Silmitasertib]
Summary of the method: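 A plate was accepted only when its control CV was below 25% and the cells had doubled at least once. Viability is defined from nuclear counts as treated wells divided by vehicle wells, with the median taken across plates. That median covers lung cancer cell lines grown in 1536-well plates, dosed by pinning at five √10-spaced library-drug concentrations, and counted in MetaXpress from 4× Hoechst images after 5 days.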

Cell Line	relative viability ([1]; first compound 0.04 µM)	relative viability ([1]; first compound 0.4 µM)	relative viability ([1]; first compound 1.265 µM)	relative viability ([1]; first compound 4 µM)	relative viability ([2]; first compound 0.04 µM)	relative viability ([2]; first compound 0.4 µM)	relative viability ([2]; first compound 1.265 µM)	relative viability ([2]; first compound 4 µM)	relative viability ([3]; first compound 0.04 µM)	relative viability ([3]; first compound 0.4 µM)	relative viability ([3]; first compound 1.265 µM)	relative viability ([3]; first compound 4 µM)	relative viability ([4]; first compound 0.04 µM)	relative viability ([4]; first compound 0.4 µM)	relative viability ([4]; first compound 1.265 µM)	relative viability ([4]; first compound 4 µM)	relative viability ([5]; 0.04 µM)	relative viability ([5]; 0.4 µM)	relative viability ([5]; 1.265 µM)	relative viability ([5]; 4 µM)
LOU-NH91	0.585	0.475	0.46	0.383	0.8	0.614	0.612	0.593	0.755	0.585	0.676	0.683	0.941	0.839	0.8	0.814	1.12	0.917	0.806	0.582
LU99A	0.478	0.46	0.369	0.434	0.502	0.521	0.399	0.471	0.583	0.725	0.558	0.591	0.277	0.287	0.216	0.204	1.03	1.09	0.986	0.752
LXF-289	0.181		0.346	0.363	1.06		1.09	1.07	0.794		0.842	0.825	0.995		0.935	1.07	1.05		1.05	1.02
NCI-H23	0.793		0.652	0.581	0.762		0.67	0.547	0.51		0.384	0.362	0.351	0.217	0.272	0.251	1.07	0.395	0.747	0.372
NCI-H322M	0.243	0.294	0.282	0.294	0.763	0.71	0.559	0.465	0.878	0.662	0.511	0.281	0.7	0.608	0.456	0.39	1.08	0.882	0.826	0.486
NCI-H358	0.176	0.312	0.14	0.155	0.916	0.786	0.65	0.48	0.616	0.47	0.493	0.407	0.696	0.396	0.483	0.36	1.13	0.757	0.744	0.667
NCI-H441	0.651		0.532	0.333	0.746		0.634	0.41	0.814		0.787	0.6	0.604		0.647	0.341	1		0.892	0.757
NCI-H460	0.56	0.445	0.44	0.448	0.488	0.512	0.466	0.421	0.91	0.866	0.755	0.865	0.387	0.269	0.553	0.575	1.03	0.951	0.959	0.799
NCI-H520	0.274	0.215	0.196	0.193	0.932	1.01	1.16	0.832	0.821	0.728	0.792	0.612	0.365	0.318	0.295	0.262	1.11	0.835	0.887	0.802
NCI-H596	0.617	0.563	0.463	0.497	0.47	0.429	0.382	0.444	1.01	1.01	0.909	0.964	0.659	0.597	0.685	0.654	0.958	0.792	0.947	0.658
NCI-H647	0.185	0.266	0.171	0.0776	1.37	1.09	0.688	0.465	1.26	1.1	0.932	0.48	0.625	0.431	0.57	0.325	0.968	0.758	0.723	0.498
NCI-H650	0.479	0.373	0.375	0.285	1.16	0.648	1.09	0.99	0.79	0.502	0.463	0.378	0.4	0.232	0.317	0.294	1.17	0.567	0.66	0.379
NCI-H661	1.13	0.723	0.607	0.569	0.784		0.547	0.338	1.02	0.929		1.1	0.735	0.679	0.629	0.493	1.06	0.829	0.946	0.991
NCI-H727	0.326	0.358	0.272	0.379	0.611	0.506	0.493	0.297	0.868	0.65	0.753	0.485	0.709	0.59	0.584	0.681	1.18	0.619	0.833	0.894
NCI-H838	0.323	0.325	0.372	0.254	1.05		0.967	0.556	0.941		0.861	0.511	0.849	0.521	0.635	0.491	1.03	0.747	0.925	0.678
NCI-H1355	0.766		0.578	0.485	0.911		0.721	0.766	1.07		1.1	1.07	0.727		0.698	0.615	1.06		0.918	0.668
NCI-H1437	0.483	0.376	0.272	0.322	0.976		0.741	0.498	0.916		0.865	0.778	0.648	0.645	0.521	0.483	1.04	0.679	0.784	0.737

Cell Line	relative viability ([1]; first compound 0.04 µM)	relative viability ([1]; first compound 0.4 µM)	relative viability ([1]; first compound 1.265 µM)	relative viability ([1]; first compound 4 µM)	relative viability ([2]; first compound 0.04 µM)	relative viability ([2]; first compound 0.4 µM)	relative viability ([2]; first compound 1.265 µM)	relative viability ([2]; first compound 4 µM)	relative viability ([3]; first compound 0.04 µM)	relative viability ([3]; first compound 0.4 µM)	relative viability ([3]; first compound 1.265 µM)	relative viability ([3]; first compound 4 µM)	relative viability ([4]; first compound 0.04 µM)	relative viability ([4]; first compound 0.4 µM)	relative viability ([4]; first compound 1.265 µM)	relative viability ([4]; first compound 4 µM)	relative viability ([5]; 0.04 µM)	relative viability ([5]; 0.4 µM)	relative viability ([5]; 1.265 µM)	relative viability ([5]; 4 µM)
NCI-H1651	0.49	0.387	0.448	0.384	0.951	1.03	0.952	0.86	0.88	0.727	0.834	0.924	0.171	0.139	0.184	0.186	0.974	0.991	1.02	0.989
NCI-H1666	0.837	0.664	0.623	0.615	1.03	0.781	0.61	0.505	0.918	0.787	0.691	0.508	0.713	0.577	0.566	0.61	1.05	0.834	0.745	0.692
NCI-H1734	0.498	0.422	0.471	0.487	0.688		0.649	0.66	0.628		0.606	0.655	0.607	0.373	0.583	0.549	1.07	0.816	0.975	0.691
NCI-H1755	0.382	0.419	0.408	0.363	0.981	0.912	0.908	0.987	0.89	0.837	0.929	0.924	0.892	0.783	0.858	1.01	1.03	0.953	1.05	1.16
NCI-H1792	0.869	0.806	0.824	0.921	0.671	0.595	0.683	0.727	0.948	0.764	0.735	0.882	0.308	0.421	0.431	0.281	0.987	0.788	0.858	0.416
NCI-H1915	0.32		0.332	0.192	1.05		1.14	0.885	0.888		0.931	0.718	0.262		0.263	0.201	1.01		1.03	0.554
NCI-H1944	0.229	0.235	0.227	0.224	0.892	0.765	0.774	0.884	1.1	0.856	0.965	1.03	0.404	0.33	0.495	0.587	1.01	0.748	0.994	0.936
NCI-H1975	0.401		0.324	0.432	0.683	0.532	0.589	0.468	0.954	0.795	0.929	0.816	0.818		0.658	0.832	1.18		0.904	0.917
NCI-H1993	0.652	0.502	0.52	0.586	0.662	0.602	0.617	0.688	0.956	0.899	0.803	0.644	1.24	0.804	0.96	0.831	1.08	0.742	0.837	0.622
NCI-H2009	0.35	0.297	0.246	0.218	1.17	1.03	1.03	0.707	1.09	1.04	1.1	0.97	0.747	0.638	0.756	0.595	1.05	0.878	0.85	0.608
NCI-H2023	0.547	0.443	0.548	0.416	0.684	0.522	0.599	0.399	0.663	0.585	0.513	0.542	0.532	0.363	0.46	0.468	1.03	0.791	0.87	0.651
NCI-H2085	0.253	0.233	0.245	0.265	1.02	0.806	0.81	0.878	0.871	0.777	0.806	0.77	0.805	0.529	0.731	0.684	1.03	0.779	0.941	0.902
NCI-H2087	0.828		0.695	0.308	1.08	0.811	0.76	0.386	0.88	0.793	0.853	0.428	0.614	0.217	0.465	0.38	1.04	0.596	0.875	0.466
NCI-H2126	0.602	0.584	0.573	0.539	0.72	0.667	0.727	0.704	1.02	0.996	0.99	1.12	0.914	0.73	0.821	0.818	0.996	0.824	0.939	0.81
NCI-H2170	0.61	0.502	0.676	0.598	0.805	0.648	0.697	0.771	1.22	0.958	0.863	1.15	0.56	0.299	0.529	0.574	1.02	0.712	0.932	0.96
NCI-H2228	0.517		0.523	0.528	0.785	0.821	0.821	0.808	0.497	0.495	0.449	0.374	0.713	0.208	0.474	0.668	0.949	0.715	1.12	1.06
